We go through five compounds from US11541237B2, “Methods for improving shoulder range of motion and functionality” (priority 2013, dated 2023).

Data set [1] has as its system A (delta) and C sensory fibers. The settings on record: cited from earlier work; for sensory blocking properties: compared with the corresponding R (dextro)-enantiomers.
The test system of data set [2] is suprascapular nerve. The data set is described as follows: Fanlike injection in the vicinity of the suprascapular nerve, patient with pain and decreased range of motion after rotator cuff repair (Example 1). Format: in vivo, human. The settings on record: many months after torn rotator cuff repair, lidocaine 1% (3 ml). The procedure:
A patient with pain and decreased range of motion for many months following repair of a torn rotator cuff, was treated using a fanlike injection of lidocaine 1% (3 ml) merely in the vicinity of the suprascapular nerve, hitting small fibers in the area.
This block differs from classic suprascapular block in that the area around the nerve was targeted and treated, rather than the nerve itself. This procedure was easier to perform than trying to block the suprascapular nerve directly, which would have been much more difficult to target or specific, direct treatment. In terms of neurostimulation, or blocking with energy sources such as light, laser, infrasound or electricity, it means that transcutaneous methods can work well by targeting the area around a major nerve, or merely within its general area of innervation, and not necessarily the nerve itself.

Data set [3] deals with suprascapular nerve. The data set is described as follows: Direct suprascapular injection and subsequent fanlike injection, patient with CRPS of left arm and hand with frozen shoulder syndrome (Example 7). Format: in vivo, human. The settings on record: lidocaine 1% (4 ml) together with methylprednisolone acetate (10 mg), direct suprascapular then fanlike injection, a few treatment sessions. The source says:
A patient had severe CRPS of the left arm and hand with frozen shoulder syndrome and severe edema, allodynia coldness and nail changes involving their left hand for over 18 months. Their condition is shown in the photographs of FIGS. 6 and 7. They failed all therapies to the time of presentation.

The conditions of data set [4]: intranasally administered; cited from earlier work.
Data set [5] deals with saphenous nerve. The data set is described as follows: Saphenous nerve injection, patient with severe leg and foot pain due to surgical trauma (Example 2). The settings on record: ropivacaine 0.25% (5 ml). Format: in vivo, human. The method, then:
A patient with severe leg and foot pain for several years due to prior surgical trauma resulting from an initial bunionectomy and other follow-up surgeries was treated by a saphenous nerve injection of ropivacaine 0.25% (5 ml) after exquisite tenderness was noted on palpation of the saphenous nerve greater than 14 cm proximal to the level of their foot trauma. However, much of their symptomatology was in the distribution of other nerves. Indeed, they had motor dysfunction of the toes and their saphenous nerve is a purely sensory nerve. […] They could walk like they had not in many years.

The test system of data set [6] is migraine. The settings on record: direct application to region of nasal epithelium overlying the SPG using a cotton swab, versus drip and spray methods; cited from earlier work.
For data set [7] the following is noted: cited from earlier work.
The test system of data set [8] is radial nerve. The data set is described as follows: Injection in fanlike distribution of the radial nerve, patient with CRPS of right hand (Example 3). Format: in vivo, human. The settings on record: single treatment, bupivacaine 0.25% (3 ml). The source says:
A patient with CRPS and severe pain, including pins and needles sensation in their right hand for over 20 years, presented with these symptoms and major discoloration in their right arm due to compartment syndrome many years ago and could barely open and close their fist.

Data set [9] has as its system facial pain / facial neuropathies. The data set is described as follows: Intranasal local anesthetic in patients with facial pain after facial trauma (Examples 4-6). In kind it is in vivo, human. The method, then:
A patient had severe facial pain following a large metal beam impact which left them with facial neuropathies and headache that adversely affected their ability to eat and speak was treated with intranasal bupivacaine 0.5% (4 ml). […] They improved with subsequent repeat treatments and was able to perform job and daily activities normally. […] A patient with severe facial pain resulting from being hit in the face with a pipe that caused four facial fractures, for seven years had numbness in certain areas of their face and severe pain in the area of their left eye, as well as generalized facial and head pain. They were treated with intranasal bupivacaine 0.5% (4 ml). […] A patient had sustained facial nerve injuries from a close range gunshot wound to the face. They were in excruciating pain and could not speak or eat without severe duress. […] They had been in agony for over 5 years previous to this treatment.

The test system of data set [10] is Supratrochlear nerve / occipital nerves with SPG. The data set is described as follows: Injection of supratrochlear or occipital nerves combined with SPG block. Format: in vivo, human. The source says:
Another aspect of the invention is the combination of stimulation of SPG with branches of Trigeminal nerves, or occipital nerves. There is known C-2 and 3 connection with Trigeminal nerve and SPG and likely with C1.

[11] abbreviates: Example 4, patient, metal beam impact, intranasal bupivacaine 0.5% (4 ml).

Take `CCCN1CCCC[C@H]1C(=O)Nc1c(C)cccc1C` (single isomer, unassigned) [S (levo)-enantiomer of ropivacaine]: the sensory blocking properties entry in [1] is “better sensory blocking properties”.
Take `CCN(CC)CC(=O)Nc1c(C)cccc1C` [lidocaine]: the “pain and range of motion” value in [2] is “remarkable improvement in pain and range of motion”. The “symptoms and findings of CRPS (frozen shoulder, edema, allodynia, coldness, nail changes)” value in data set [3] is “completely reversed these symptoms and findings”. Also, the duration of action result in data set [4] was “shorter than about one hour”.
With `CCCN1CCCC[C@H]1C(=O)Nc1c(C)cccc1C` [ropivacaine], in [5], the relief of pain entry was “almost complete relief of pain”; the “sensation and strength in the distribution of other peripheral nerves, including the peroneal nerves” value is “normalized sensation and strength”; the “time to reported pain relief” value is ≤ 10 min. In addition, the “block of nerve fibers such as A (delta) and C sensory fibers versus motor neurons” value in data set [1] (compared with bupivacaine) is “more preferentially than other neurons such as motor neurons”. Also, the inhibition of migraine entry in [6] is “most rapid and most effective inhibition of migraine”. The “cardiovascular and central nervous system toxicity” value in data set [7] (compared with bupivacaine) was “lower cardiovascular and central nervous system toxicity than bupivacaine”. Further, in [7] (compared with other similar relatively long acting potent local anesthetics), the systemic toxicity profile result is “better systemic toxicity profile”.
`CCCCN1CCCCC1C(=O)Nc1c(C)cccc1C` (stereo not drawn) [bupivacaine]: in [8] (patient with CRPS over 20 years, fanlike distribution of radial nerve), the “symptoms and hand function” value was “felt dramatically better and could open and close their hand and make and maintain a fist”. Moreover, the “neurotrophic findings of decreased temperature, edema, allodynia, discoloration and severe restriction of range of motion” value in [8] (patient with CRPS) was “decreased dramatically”. The relief of pain result was “almost complete relief of pain” in [9] (setting [11]) and “complete relief of pain” in data set [9] (Example 5, patient, intranasal bupivacaine 0.5% (4 ml)). For the same compound, the “time to reported pain relief” value in data set [9] (setting [11]) was ≤ 3 min; in data set [9] (Example 5, patient, four facial fractures, pain for seven years, intranasal bupivacaine 0.5% (4 ml)), ≤ 1 min. The “ability to open mouth, eat and speak” value in data set [9] (Example 4, patient, intranasal bupivacaine 0.5% (4 ml)) was “could open their mouth wide, eat normally and could speak for normal periods of time and at normal volume”. The pain management entry in data set [9] (Example 6, patient, gunshot wound to the face, intranasal bupivacaine 0.5% (3-4 ml) monthly, several years follow up) is “manages their pain well”. Also, the adverse sequela entry in data set [9] (Example 6, intranasal bupivacaine 0.5% (3-4 ml) monthly, several years follow up) is on record as “no adverse sequela”. In [10] (injection of bupivacaine 0.5% to the Supratrochlear nerve), the “result of subsequent SPG block” value was “better result with SPG block subsequently”. Also, in data set [10] (injection of occipital nerves with 0.5%, with SPG block), the headache entry is “headache was further decreased with SPG block”.
With `CCCCN1CCCC[C@H]1C(=O)Nc1c(C)cccc1C` [S (levo)-enantiomer of bupivacaine], in data set [1], the sensory blocking properties entry is given as “better sensory blocking properties”. Further, in [7] (compared with the corresponding R (dextro)-enantiomers), the physiological toxicity entry is recorded as “lower physiological toxicity”.
